Results taken from EP4177246A1, “FUSED OXAZEPINES AS INHIBITORS OF PEROXIREDOXINS” (Centro Atlántico del Medicamento, SA, priority 2021, dated 2023).

Experiments:
K562 = experiment: MTT cell viability assay, K562 cells; type: cell-based; settings: Homo sapiens, 48 h drug exposure
Experimental: K562 [American Type Culture Collection (ATCC) reference number CCL-243]. This a human cancer cell line derived from the bone marrow of a person with CML.
(§1) Cell viability was assayed by measuring the mitochondrial reduction of the tetrazolium salt 3-(4,5-methyltiazol-2yl)-2,5diphenyl-tetrazolium bromide] (MTT) (Applichen; A2231,0010) [Mosmann T. J Immunol Methods. 1983 16;65(1-2):55-63 (ref. 36); Chuan Y-C et al 2010. Oncogene. 29 (10), 1531-1542 (ref. 37)]. Cells were seeded in 96-well plates in medium (either RPMI, DMEM or McCoys depending on the recommendations from the ATCC) supplemented with 10% FBS (Lonza Cat. N°: 14-502F), 2mM L-Glut (Lonza Cat. N°: BE17-605E) and 100U/ml PEST (Lonza Cat. N°: DE17-605E) at a cell density of 1000-5000 cells/well (96 well plate). Cells were seeded at a density according to their exponential growth phase (normally 1000 to 5000/well). The cells were cultured at 37 °C in the dark in air containing 5% CO2. After 24h either vehicle (0.05% DMSO) or drug were added to culture medium at the indicated concentrations (10 to 0,01microM). After another 48 h, MTT (0.3 mg/ml) was added to cells, followed by incubation for 2-4h at 37 °C in the dark. The medium was then removed and the precipitated formazan was solubilized by the addition of DMSO (200 µL).
(§2) The optical density was measured at 595 nm with the iMark Microplate Reader (BioRad, USA). Data was expressed as percent growth above the level in controls and the results in figures were plotted as means ± SEM of each test point from 3 replicates.
(§3) Statistical analysis. The concentration of drug that provokes 50% reduction of cell viability (IC50) was determined by using non-linear regression analysis and data were fitted to a log concentration vs normalized response curve in GraphPad software v5 (San Diego, CA).

MDA-MB-231 = experiment: MTT cell viability assay, MDA-MB-231 cells; type: cell-based, human; settings: 48 h drug exposure
Experimental: MDA-MB-231 [American Type Culture Collection (ATCC) reference number HTB-26]. This a human breast cancer cell line derived from a metastatic site from a person.
as §1, §2, §3

HEL 92.1.7 = experiment: MTT cell viability assay, HEL cells; type: cell-based; settings: Homo sapiens, 48 h drug exposure
Experimental: HEL 92.1.7 [American Type Culture Collection (ATCC) reference number TIB-180]. This a human cancer cell line derived from the bone marrow of a person with erythroleukemia, which is a form of AML.
as §1, §2, §3

Row | Structure (SMILES) | IC50 (MDA-MB-231; Homo sapiens) [µM] | other results
1 | O=C1C2=C(C(=O)c3ccccc31)N(c1ccc(Cl)cc1)Cc1ccccc1O2 [Compound 3] |  | IC50 (K562): 0.9 µM
2 | O=C1C2=C(C(=O)c3ccccc31)N(c1ccccn1)Cc1ccccc1O2 [Compound 5, 12-(pyridin-2-yl)-12,13-dihydrobenzo[f]naphtho[2,3-b][1,4]oxazepine-6,11-dione] |  | IC50 (K562): 0.43 µM
3 | COc1cccc2c1OC1=C(C(=O)c3ccccc3C1=O)N(c1ccc(C(N)=O)cc1)C2 [Compound 7] |  | IC50 (K562): 0.89 µM
4 | COc1ccc2c(c1)OC1=C(C(=O)c3ccccc3C1=O)N(c1ccc(C#N)cc1)C2 [Compound 14] |  | IC50 (K562): 0.97 µM
5 | O=C(O)c1ccc(N2Cc3ccccc3OC3=C2C(=O)c2ccccc2C3=O)cc1 [Compound 18] |  | IC50 (K562): > 10 µM
6 | NS(=O)(=O)c1ccc(N2Cc3cc(Cl)ccc3OC3=C2C(=O)c2ccccc2C3=O)cc1 [Compound 20] |  | IC50 (K562): 1.42 µM
7 | NC(=O)c1ccc(N2Cc3cc(Cl)ccc3OC3=C2C(=O)c2ccccc2C3=O)cc1 [Compound 21] |  | IC50 (K562): 1.12 µM
8 | O=C1C2=C(Oc3ccccc3CN2c2cccnc2)C(=O)c2c1cccc2[N+](=O)[O-] [Compound 27] | 1.73 | 
9 | O=C1C2=C(C(=O)c3c1cccc3[N+](=O)[O-])N(c1cccnc1)Cc1ccccc1O2 [Compound 28] | 2 | 
10 | NS(=O)(=O)c1ccc(N2Cc3ccccc3OC3=C2C(=O)c2ccc(S(=O)(=O)N4CCOCC4)cc2C3=O)cc1 [Compound 29] | > 10 | 
11 | COc1ccc(OC)c2c1C(=O)C1=C(C2=O)N(c2ccc(C#N)cc2)Cc2ccccc2O1 [Compound 30] | 0.89 | 
12 | COc1cc(F)c(OC)c2c1C(=O)C1=C(Oc3ccccc3CN1c1ccc(C#N)cc1)C2=O [Compound 31] | 1.51 | 
13 | CN1CCN(c2cc(O)c3c(c2O)C(=O)C2=C(C3=O)N(c3ccc(C#N)cc3)Cc3ccccc3O2)CC1 [Compound 32] | 0.79 | 
14 | CN1CCN(c2cc(O)c3c(c2O)C(=O)C2=C(C3=O)N(c3cccnc3)Cc3ccccc3O2)CC1 [Compound 33] | 0.72 | 
15 | N#Cc1ccc(N2Cc3ccccc3OC3=C2C(=O)c2c(O)cc(F)c(O)c2C3=O)cc1 [Compound 34] | 0.74 | 
16 | COc1cc(F)c(OC)c2c1C(=O)C1=C(Oc3ccccc3CN1c1cccnc1)C2=O [Compound 35] | 0.8 | 
17 | COc1ccc(N2Cc3ccccc3OC3=C2C(=O)c2c(O)ccc(O)c2C3=O)cc1 [Compound 46] | 0.25 | IC50 (HEL 92.1.7): 0.11 µM
18 | O=C1C2=C(C(=O)c3c(O)ccc(O)c31)N(c1ccc(Cl)nc1)Cc1ccccc1O2 [Compound 47, 12-(6-chloropyridin-3-yl)-7,10-dihydroxy-12,13-dihydrobenzo[f]naphtho[2,3-b][1,4]-oxazepine-6,11-dione] | 0.33 | 
19 | COC(=O)c1ccc(N2Cc3ccccc3OC3=C2C(=O)c2c(O)ccc(O)c2C3=O)cc1 [Compound 48] | 0.27 | IC50 (HEL 92.1.7): 0.1 µM
20 | O=C(O)c1ccc2c(c1)CN(c1ccccc1)C1=C(O2)C(=O)c2c(O)ccc(O)c2C1=O [Compound 50] |  | IC50 (HEL 92.1.7): 2.42 µM
21 | CCOC(=O)c1ccc2c(c1)CN(c1cccnc1)C1=C(O2)C(=O)c2c(O)ccc(O)c2C1=O [Compound 51] | 0.6 | IC50 (HEL 92.1.7): 3.31 µM

Row | Structure (SMILES) | IC50 (MDA-MB-231; Homo sapiens) [µM] | other results
22 | O=C(O)c1ccc2c(c1)CN(c1cccnc1)C1=C(O2)C(=O)c2c(O)ccc(O)c2C1=O [Compound 52] | > 10 | IC50 (HEL 92.1.7): > 10 µM
23 | CC(=O)Oc1ccc(OC(C)=O)c2c1C(=O)C1=C(C2=O)N(c2ccc(C(=O)O)cc2)Cc2ccccc2O1 [Compound 53] | 0.64 | IC50 (HEL 92.1.7): 0.12 µM
24 | O=C(O)c1ccc(N2Cc3ccccc3OC3=C2C(=O)c2c(O)ccc(O)c2C3=O)cc1 [Compound 57] | 1.17 | IC50 (HEL 92.1.7): 0.13 µM
25 | O=C1C2=C(C(=O)c3c(O)ccc(O)c31)N(c1ccc(C(=O)N3CCOCC3)cc1)Cc1ccccc1O2 [Compound 58, 7,10-dihydroxy-12-(4-(morpholine-4-carbonyl)phenyl)-12,13-dihydrobenzo[f]naphtho[2,3-b][1,4]oxazepine-6,11-dione] | 0.5 | 
26 | CC(=O)Oc1ccc(OC(C)=O)c2c1C(=O)C1=C(C2=O)N(c2cccnc2)Cc2ccccc2O1 [Compound 60, 6,11-dioxo-12-(pyridin-3-yl)-6,11,12,13-tetrahydrobenzo[f]naphtho[2,3-b][1,4] oxazepine-7,10-diyl diacetate] | 0.41 | IC50 (HEL 92.1.7): 0.08 µM
27 | NCCN(CCO)c1ccc(N2Cc3ccccc3OC3=C2C(=O)c2c(O)ccc(O)c2C3=O)cn1 [Compound 63] | 0.25 | IC50 (HEL 92.1.7): 0.09 µM
28 | CC(=O)Oc1ccc(OC(C)=O)c2c1C(=O)C1=C(C2=O)N(c2ccc(C#N)cc2)Cc2ccccc2O1 [Compound 67, 12-(4-cyanophenyl)-6,11-dioxo-6,11,12,13-tetrahydrobenzo[f]naphtho[2,3-b][1,4] oxazepine-7,10-diyl diacetate] | 0.28 | IC50 (HEL 92.1.7): 0.23 µM
29 | N#Cc1ccc(N2Cc3ccccc3OC3=C2C(=O)c2ccc(S(=O)(=O)N4CCOCC4)cc2C3=O)cc1 [Compound 70] | 7.1 | 
30 | O=C1C2=C(C(=O)c3ccc(S(=O)(=O)N4CCOCC4)cc31)N(c1cccnc1)Cc1ccccc1O2 [Compound 71] | 3.2 | 
31 | CN(C)CCOc1ccc(N2Cc3ccccc3OC3=C2C(=O)c2ccccc2C3=O)cn1 [Compound 72] | 0.72 | 
32 | N#Cc1ccc(N2Cc3ccccc3OC3=C2C(=O)c2ccc(Br)c(O)c2C3=O)cc1 [Compound 74, 4-(8-bromo-7-hydroxy-6,11-dioxo-6,11-dihydrobenzo[f]naphtho[2,3-b][1,4]oxazepin-12(13H)-yl)benzonitrile] | 1.8 | 
33 | CS(=O)(=O)Nc1cccc2c1C(=O)C1=C(C2=O)N(c2ccc(C#N)cc2)Cc2ccccc2O1 [Compound 78, N-(12-(4-cyanophenyl)-6,11-dioxo-6,11,12,13-tetrahydrobenzo[f]naphtha [2,3-b][1,4]oxazepin-7-yl)methanesulfonamide] | 6.9 | 
34 | NS(=O)(=O)c1ccc(N2Cc3ccccc3OC3=C2C(=O)c2cccc([N+](=O)[O-])c2C3=O)cc1 [Compound 79] | 6.8 | 
35 | NS(=O)(=O)c1ccc(N2Cc3ccccc3OC3=C2C(=O)c2c(cccc2[N+](=O)[O-])C3=O)cc1 [Compound 80] | 6.6 | 
36 | CC(=O)Oc1ccc(O)c2c1C(=O)C1=C(C2=O)N(c2ccccc2)Cc2ccccc2O1 [Compound 88] |  | IC50 (HEL 92.1.7): 0.08 µM
37 | CC(=O)Oc1ccc(O)c2c1C(=O)C1=C(Oc3ccccc3CN1c1cccnc1)C2=O [Compound 90] |  | IC50 (HEL 92.1.7): 0.09 µM
38 | COc1ccc(OC)c2c1C(=O)C1=C(C2=O)N(c2cccc(C#N)c2)Cc2ccccc2O1 [Compound 94] | 1 | 
39 | CC(=O)Oc1ccc(OC(C)=O)c2c1C(=O)C1=C(Oc3ccccc3C(c3ccc(N(C)C)nc3)N1)C2=O (stereo not drawn) [Compound 95, 12-(6-(dimethylamino)pyridin-3-yl)-6,11-dioxo-6,11,12,13-tetrahydrobenzo[f]naphtha [2,3-b][1,4]oxazepine-7,10-diyl diacetate] |  | IC50 (MDA-MB-231): 0.15 µM
40 | CC(=O)Oc1ccc(OC(C)=O)c2c1C(=O)C1=C(Oc3ccccc3C(c3ccc(N4CCOCC4)nc3)N1)C2=O (stereo not drawn) [Compound 96, 12-(6-morpholinopyridin-3-yl)-6,11-dioxo-6,11,12,13-tetrahydrobenzo[f]naphtha [2,3-b][1,4] oxazepine-7,10-diyl diacetate] |  | IC50 (MDA-MB-231): 0.13 µM
41 | N#Cc1ccc(N2Cc3ccccc3OC3=C2C(=O)c2cccc([N+](=O)[O-])c2C3=O)cc1 [Compound 107] | 5.9 | 
42 | N#Cc1ccc(N2Cc3ccccc3OC3=C2C(=O)c2c(cccc2[N+](=O)[O-])C3=O)cc1 [Compound 108] | 2.95 | 
